Target: T1, N-terminal HiBiT tagged BCL6 (Homo sapiens, UniProt P41182)
T1 construct: expressed in transfected cells; host or cells: HT1080 (ATCC CCL-121), stably transduced with lentivirus pLV-UBC-N-HiBiT-BCL6-PGK-puro
Test: HiBiT based degradation assay
Format: cell-based
Conditions: HT1080 cells expressing N-terminal HiBiT tagged BCL6, 5 hours of incubation; for Ymin (5 hr): BCL6 degradation normalized with DMSO control; for DC50: four-parameter logistic model, read-out: EC50 (5 hr)
How it was run: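 Degradation measured by luminescence from the Nano-Glo HiBiT lytic reagent (15 min, room temperature), normalized to DMSO controls and fitted to a four-parameter curve.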

Row | Ymin (5 hr) | DC50 [nM] | Compound
1 | ++ (50% ≤ Ymin < 70%) | < 10 | CNC(=O)COc1cc2cc(Nc3nc(N4CCN([C@H]5C[C@H](OC6CCN(c7ccc8c(C9CCC(=O)NC9=O)nn(C)c8c7)CC6)C5)CC4)ncc3Cl)cnc2n(C(C)C)c1=O (stereo partly shown) [Compound 227a, 2-((6-((5-chloro-2-(4-((1r,3r)-3-((1-(3-(2,6-dioxopiperidin-3-yl)-1-methyl-1H-indazol-6-yl)piperidin-4-yl)oxy)cyclobutyl)piperazin-1-yl)pyrimidin-4-yl)amino)-1-isopropyl-2-oxo-1,2-dihydro-1,8-naphthyridin-3-yl)oxy)-N-methylacetamide]
2 | +++ (30% ≤ Ymin < 50%) | < 10 | CNC(=O)COc1cc2cc(Nc3nc(N4CCN(C[C@@H]5CCN(c6ccc7c(C8CCC(=O)NC8=O)nn(C)c7c6)C5)CC4)ncc3Cl)cnc2n(C(C)C)c1=O (stereo partly drawn) [Compound 228a, 2-[[6-[[5-chloro-2-[4-[[(3S)-1-[3-(2,6-dioxo-3-piperidyl)-1-methyl-indazol-6-yl]pyrrolidin-3-yl]methyl]piperazin-1-yl]pyrimidin-4-yl]amino]-1-isopropyl-2-oxo-1,8-naphthyridin-3-yl]oxy]-N-methyl-acetamide]
3 | ++ (50% ≤ Ymin < 70%) | 10 to 100 | CNC(=O)COc1cc2cc(Nc3nc(N4CCN(C[C@H]5CCN(c6ccc7c(C8CCC(=O)NC8=O)nn(C)c7c6)C5)CC4)ncc3Cl)cnc2n(C(C)C)c1=O (stereo partly drawn) [Compound 228b, 2-((6-((5-chloro-2-(4-(((3R)-1-(3-(2,6-dioxopiperidin-3-yl)-1-methyl-1H-indazol-6-yl)pyrrolidin-3-yl)methyl)piperazin-1-yl)pyrimidin-4-yl)amino)-1-isopropyl-2-oxo-1,2-dihydro-1,8-naphthyridin-3-yl)oxy)-N-methylacetamide]
4 | ++++ (Ymin < 30%) | 10 to 100 | CNC(=O)COc1cc2cc(Nc3nc(N4CCC(CN5CCN(c6cccc7c(C8CCC(=O)NC8=O)nn(C)c67)C[C@H]5CO)CC4)ncc3Cl)cnc2n(C(C)C)c1=O (stereo partly drawn) [Compound 231a, 2-[[6-[[5-chloro-2-[4-[[(2S)-4-[3-(2,6-dioxo-3-piperidyl)-1-methyl-indazol-7-yl]-2-(hydroxymethyl)piperazin-1-yl]methyl]-1-piperidyl]pyrimidin-4-yl]amino]-1-isopropyl-2-oxo-1,8-naphthyridin-3-yl]oxy]-N-methyl-acetamide]

Continued, compound first:

Row | Compound | Ymin (5 hr) | DC50 [nM]
5 | CNC(=O)COc1cc2cc(Nc3cc(N4CCC(CN5CCN(c6cccc7c(C8CCC(=O)NC8=O)nn(C)c67)[C@H](C)C5)CC4)ncc3Cl)cnc2n(C(C)C)c1=O (stereo partly drawn) [Compound 217a, 2-[[6-[[5-chloro-2-[4-[[(3R)-4-[3-(2,6-dioxo-3-piperidyl)-1-methyl-indazol-7-yl]-3-methyl-piperazin-1-yl]methyl]-1-piperidyl]-4-pyridyl]amino]-1-isopropyl-2-oxo-1,8-naphthyridin-3-yl]oxy]-N-methyl-acetamide] | ++++ (Ymin < 30%) | 10 to 100
6 | CNC(=O)COc1cc2cc(Nc3cc(N4CCC(CN5CCN(c6cccc7c(C8CCC(=O)NC8=O)nn(C)c67)[C@@H](C)C5)CC4)ncc3Cl)cnc2n(C(C)C)c1=O (stereo partly drawn) [Compound 217b, 2-[[6-[[5-chloro-2-[4-[[(3S)-4-[3-(2,6-dioxo-3-piperidyl)-1-methyl-indazol-7-yl]-3-methyl-piperazin-1-yl]methyl]-1-piperidyl]-4-pyridyl]amino]-1-isopropyl-2-oxo-1,8-naphthyridin-3-yl]oxy]-N-methyl-acetamide] | + (Ymin ≥ 70%) | ≥ 1000
7 | CNC(=O)COc1cc2cc(Nc3nc(N4CC[C@@H](CN5CCN(c6ccc7c(C8CCC(=O)NC8=O)nn(C)c7c6)CC5)C4)ncc3Cl)cnc2n(C(C)C)c1=O (stereo partly drawn) [Compound 218a, 2-[[6-[[5-chloro-2-[(3S)-3-[[4-[3-(2,6-dioxo-3-piperidyl)-1-methyl-indazol-6-yl]piperazin-1-yl]methyl]pyrrolidin-1-yl]pyrimidin-4-yl]amino]-1-isopropyl-2-oxo-1,8-naphthyridin-3-yl]oxy]-N-methyl-acetamide] | +++ (30% ≤ Ymin < 50%) | < 10
8 | CNC(=O)COc1cc2cc(Nc3nc(N4CC[C@H](CN5CCN(c6ccc7c(C8CCC(=O)NC8=O)nn(C)c7c6)CC5)C4)ncc3Cl)cnc2n(C(C)C)c1=O (stereo partly drawn) [Compound 218b, 2-[[6-[[5-chloro-2-[(3R)-3-[[4-[3-(2,6-dioxo-3-piperidyl)-1-methyl-indazol-6-yl]piperazin-1-yl]methyl]pyrrolidin-1-yl]pyrimidin-4-yl]amino]-1-isopropyl-2-oxo-1,8-naphthyridin-3-yl]oxy]-N-methyl-acetamide] | +++ (30% ≤ Ymin < 50%) | < 10
9 | CNC(=O)COc1cc2cc(Nc3nc(N4CCN(C(=O)N5CCN(c6ccc7c(C8CCC(=O)NC8=O)nn(C)c7c6)CC5)CC4)ncc3Cl)cnc2n(C(C)C)c1=O (stereo not shown) [Compound 219, 2-[[6-[[5-chloro-2-[4-[4-[3-(2,6-dioxo-3-piperidyl)-1-methyl-indazol-6-yl]piperazine-1-carbonyl]piperazin-1-yl]pyrimidin-4-yl]amino]-1-isopropyl-2-oxo-1,8-naphthyridin-3-yl]oxy]-N-methyl-acetamide] | +++ (30% ≤ Ymin < 50%) | < 10
10 | CNC(=O)COc1cc2cc(Nc3nc(N4CCN(C(=O)N5CCC(c6ccc7c(C8CCC(=O)NC8=O)nn(C)c7c6)CC5)CC4)ncc3Cl)cnc2n(C(C)C)c1=O (stereo not shown) [Compound 220, 2-[[6-[[5-chloro-2-[4-[4-[3-(2,6-dioxo-3-piperidyl)-1-methyl-indazol-6-yl]piperidine-1-carbonyl]piperazin-1-yl]pyrimidin-4-yl]amino]-1-isopropyl-2-oxo-1,8-naphthyridin-3-yl]oxy]-N-methyl-acetamide] | +++ (30% ≤ Ymin < 50%) | < 10
11 | CNC(=O)COc1cc2cc(Nc3nc(N4CC5(CCC(Nc6c(F)ccc7c(C8CCC(=O)NC8=O)nn(C)c67)CC5)C4)ncc3Cl)cnc2n(C(C)C)c1=O (stereo not shown) [Compound 222, 2-[[6-[[5-chloro-2-[7-[[3-(2,6-dioxo-3-piperidyl)-6-fluoro-1-methyl-indazol-7-yl]amino]-2-azaspiro[3.5]nonan-2-yl]pyrimidin-4-yl]amino]-1-isopropyl-2-oxo-1,8-naphthyridin-3-yl]oxy]-N-methyl-acetamide] | ++ (50% ≤ Ymin < 70%) | 10 to 100
12 | CNC(=O)COc1cc2cc(Nc3nc(N4CCN(C(=O)N5CCN(c6cccc7c(C8CCC(=O)NC8=O)nn(C)c67)CC5)CC4)ncc3Cl)cnc2n(C(C)C)c1=O (stereo not shown) [Compound 223, 2-[[6-[[5-chloro-2-[4-[4-[3-(2,6-dioxo-3-piperidyl)-1-methyl-indazol-7-yl]piperazine-1-carbonyl]piperazin-1-yl]pyrimidin-4-yl]amino]-1-isopropyl-2-oxo-1,8-naphthyridin-3-yl]oxy]-N-methyl-acetamide] | ++++ (Ymin < 30%) | < 10
13 | CNC(=O)COc1cc2cc(Nc3nc(N4CCN(C(=O)N5CCC(c6cccc7c(C8CCC(=O)NC8=O)nn(C)c67)CC5)CC4)ncc3Cl)cnc2n(C(C)C)c1=O (stereo not shown) [Compound 224, 2-[[6-[[5-chloro-2-[4-[4-[3-(2,6-dioxo-3-piperidyl)-1-methyl-indazol-7-yl]piperidine-1-carbonyl]piperazin-1-yl]pyrimidin-4-yl]amino]-1-isopropyl-2-oxo-1,8-naphthyridin-3-yl]oxy]-N-methyl-acetamide] | +++ (30% ≤ Ymin < 50%) | < 10
14 | CNC(=O)COc1cc2cc(Nc3nc(N4CCC(OC5CCN(c6cccc7c(C8CCC(=O)NC8=O)nn(C)c67)CC5)CC4)ncc3Cl)cnc2n(C(C)C)c1=O (stereo not shown) [Compound 225, 2-[[6-[[5-chloro-2-[4-[[1-[3-(2,6-dioxo-3-piperidyl)-1-methyl-indazol-7-yl]-4-piperidyl]oxy]-1-piperidyl]pyrimidin-4-yl]amino]-1-isopropyl-2-oxo-1,8-naphthyridin-3-yl]oxy]-N-methyl-acetamide] | ++++ (Ymin < 30%) | 10 to 100
15 | CNC(=O)COc1cc2cc(Nc3nc(N4CCC(O[C@H]5C[C@H](N6CCN(c7ccc8c(C9CCC(=O)NC9=O)nn(C)c8c7)CC6)C5)CC4)ncc3Cl)cnc2n(C(C)C)c1=O (stereo partly shown) [Compound 226a, 2-((6-((5-chloro-2-(4-((1r,3r)-3-(4-(3-(2,6-dioxopiperidin-3-yl)-1-methyl-1H-indazol-6-yl)piperazin-1-yl)cyclobutoxy)piperidin-1-yl)pyrimidin-4-yl)amino)-1-isopropyl-2-oxo-1,2-dihydro-1,8-naphthyridin-3-yl)oxy)-N-methylacetamide] | +++ (30% ≤ Ymin < 50%) | < 10
16 | CNC(=O)COc1cc2cc(Nc3nc(N4CCC5(CC4)CC(N4CCN(c6ccc7c(C8CCC(=O)NC8=O)nn(C)c7c6)CC4)C5)ncc3Cl)cnc2n(C(C)C)c1=O (stereo not shown) [Compound 229, 2-[[6-[[5-chloro-2-[2-[4-[3-(2,6-dioxo-3-piperidyl)-1-methyl-indazol-6-yl]piperazin-1-yl]-7-azaspiro[3.5]nonan-7-yl]pyrimidin-4-yl]amino]-1-isopropyl-2-oxo-1,8-naphthyridin-3-yl]oxy]-N-methyl-acetamide] | ++++ (Ymin < 30%) | < 10
17 | CNC(=O)COc1cc2cc(Nc3nc(N4CCC5(CC4)CC(N4CCN(c6cccc7c(C8CCC(=O)NC8=O)nn(C)c67)CC4)C5)ncc3Cl)cnc2n(C(C)C)c1=O (stereo not shown) [Compound 230, 2-[[6-[[5-chloro-2-[2-[4-[3-(2,6-dioxo-3-piperidyl)-1-methyl-indazol-7-yl]piperazin-1-yl]-7-azaspiro [3.5]nonan-7-yl]pyrimidin-4-yl]amino]-1-isopropyl-2-oxo-1,8-naphthyridin-3-yl]oxy]-N-methyl-acetamide] | +++ (30% ≤ Ymin < 50%) | 10 to 100
